Here are results for six molecules from patent US20240175865A1, “IMPROVED PROCESSES FOR RATIONALLY-DESIGNING AND PRODUCING BIOMOLECULES” (priority 2020, published 2024).

Assay [1] deals with T1, Escherichia coli EF-Tu, unmodified (SEQ ID NO: 3) (Escherichia coli, UniProt P0CE47).
T1 construct: His6 tag (C-terminal SHHHHHH in the listing) (C)
The assay can be described thus: Nucleotide dissociation rate, stopped-flow, unmodified EF-Tu. It is filed as binding. The settings on record: 20° C., TAKM7.

The target of assay [2] is T2, Streptococcus pneumoniae MalX variant T243C, MDCC conjugate (parent MalX SEQ ID NO: 1) (Streptococcus pneumoniae serotype 4, UniProt P59213, I417L/S91N/T250C).
T2 construct: made in house; host or cells: Escherichia coli BL21(DE3) gold
The assay can be described thus: biochemical. It is filed as binding.

Assay [3] has as its target Streptococcus pneumoniae MalX variant A174C, MDCC conjugate (parent MalX SEQ ID NO: 1) (Streptococcus pneumoniae, UniProt P59213, A181C). It is filed as binding. The settings on record: 1 μM biosensor.
Assay [4] has as its target Streptococcus pneumoniae MalX variant E312C, MDCC conjugate (parent MalX SEQ ID NO: 1) (Streptococcus pneumoniae, UniProt P59213, E319C). Type of assay: binding. The settings on record: 1 μM biosensor.
Assay [5] addresses Streptococcus pneumoniae MalX, unlabeled protein (SEQ ID NO: 1). The settings on record: unlabeled protein (ABBOTT et al. 2010); read-out: measured affinity (KD); cited from earlier work.
Assay [6] concerns Yersinia enterocolitica TogB, unmodified protein (SEQ ID NO: 2). The settings on record: isothermal titration calorimetry; cited from earlier work.
Assay [7] shares this test system. The settings on record: UV-difference spectroscopy; cited from earlier work.
The target of assay [8] is T2, Streptococcus pneumoniae MalX variant T243C, MDCC conjugate (parent MalX SEQ ID NO: 1). It is filed as binding. The settings on record: 1 μM biosensor, 20 μM maltose.

The structures appear in SMILES notation. Like-named read-outs stand apart in the source and are kept apart here.

In the case of `Nc1nc2c(ncn2[C@@H]2O[C@H](COP(=O)(O)OP(=O)(O)O)[C@@H](O)[C@H]2O)c(=O)[nH]1` [GDP, guanosine diphosphate], in assay [1] (mantGDP complex mixed with excess GTP/GDP, read-out: GDP Dissociation Rate Koff), the koff is 0.002 ± 0.001 s⁻¹.

As for `Nc1nc2c(ncn2[C@@H]2O[C@H](COP(=O)(O)OP(=O)(O)OP(=O)(O)O)[C@@H](O)[C@H]2O)c(=O)[nH]1` [GTP, guanosine triphosphate], in assay [1] (mantGTP complex mixed with excess GTP/GDP, read-out: GTP Dissociation Rate koff), the koff turned out to be 0.04 ± 0.01 s⁻¹.

Turning to `OC[C@H]1O[C@H](O[C@H]2[C@H](O)[C@@H](O)[C@@H](O[C@H]3[C@H](O)[C@@H](O)C(O)O[C@@H]3CO)O[C@@H]2CO)[C@H](O)[C@@H](O)[C@@H]1O` (stereo partly shown) [M3, Maltotriose], the Kd was 0.6 ± 0.2 µM in assay [2] and 0.8 ± 0.125 µM in assay [5]. Also, the “fluorescence change upon binding M3” value in assay [3] (20 μM M3) and in assay [4] (20 μM M3) was “did not show a fluorescence change” throughout.

Regarding `O=C(O)[C@H]1O[C@H](O[C@@H]2[C@H](O)[C@@H](O)C(O)O[C@@H]2C(=O)O)[C@H](O)[C@@H](O)[C@H]1O` (stereo partly shown) [digalUA, digalacturonic acid], the equilibrium dissociation constant (Kd) is 16 ± 2 µM in assay [6] and 11.8 ± 0.5 µM in assay [7].

Take `OC[C@H]1O[C@H](O[C@H]2[C@H](O)[C@@H](O)C(O)O[C@@H]2CO)[C@H](O)[C@@H](O)[C@@H]1O` (stereo partly shown) [maltose, Maltose]: the “fluorescence change in presence of non-specific ligand (maltose)” value in assay [3] (20 μM maltose), in assay [8] and in assay [4] (20 μM maltose) was “little to no fluorescence change” each time.

As to `O=C(O)C1=C[C@H](O)[C@@H](O)[C@@H](O[C@@H]2[C@H](O)[C@@H](O)C(O)O[C@@H]2C(=O)O)O1` (stereo partly shown) [unsatdigalUA, 4,5-unsaturated digalacturonic acid], the Kd is 5 ± 1 µM in assay [6] and 3.2 ± 0.1 µM in assay [7].
